Test results taken from US11117861B2, “Phenylpyrrolidinone formyl peptide 2 receptor agonists” (BRISTOL-MYERS SQUIBB COMPANY, priority 2018, dated 2021).

Tests used:
human FPR1 = human FPR1 (Homo sapiens (Human), UniProt P21462); assay: FPR1 cyclic adenosine monophosphate (cAMP) assay in CHO cells overexpressing human FPR1; type: cell-based; details: forskolin 10 μM, inhibition of cAMP production, read-out: hFPR1 cAMP EC50
human FPR2 = human FPR2 (Homo sapiens (Human), UniProt P25090); assay: FPR2 cyclic adenosine monophosphate (cAMP) assay in CHO cells overexpressing human FPR2; type: cell-based; details: forskolin 5 μM, inhibition of cAMP production, read-out: hFPR2 cAMP2 EC50
Chain of human FPR2 (P25090 whole entry): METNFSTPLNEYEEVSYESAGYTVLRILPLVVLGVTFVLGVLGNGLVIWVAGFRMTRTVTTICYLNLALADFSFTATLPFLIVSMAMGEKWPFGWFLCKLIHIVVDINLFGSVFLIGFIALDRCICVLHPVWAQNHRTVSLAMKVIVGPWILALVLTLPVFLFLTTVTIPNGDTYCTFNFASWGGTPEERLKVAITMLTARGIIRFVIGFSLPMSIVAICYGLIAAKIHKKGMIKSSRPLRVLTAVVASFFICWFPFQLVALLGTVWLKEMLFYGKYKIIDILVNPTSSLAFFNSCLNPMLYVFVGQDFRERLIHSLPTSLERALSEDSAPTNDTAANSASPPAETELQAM
Source text: N-formyl peptide receptors (FPRs) are a family of chemo attractant receptors that facilitate leukocyte response during inflammation. FPRs belong to the seven-transmembrane G protein-coupled receptor superfamily and are linked to inhibitory G-proteins (Gi). Three family members (FPR1, FPR2 and FPR3) have been identified in humans and are predominantly found in myeloid cells with varied distribution and have also been reported in multiple organs and tissues. After agonist binding, the FPRs activate a multitude of physiological pathways, such as intra cellular signaling transduction, Ca^2+ mobilization and transcription. The family interacts with a diverse set of ligands that includes proteins, polypeptides and fatty acid metabolites which activate both pro-inflammatory and pro-resolution downstream responses. […]
FPR2 and FPR1 Cyclic Adenosine Monophosphate (cAMP) Assays. […] The level of intracellular cAMP was determined using the HTRF HiRange cAMP assay reagent kit (Cisbio) according to manufacturer's instruction. […] After a 1-h room temperature incubation, time-resolved fluorescence intensity was measured using the Envision (Perkin-Elmer) at 400 nm excitation and dual emission at 590 nm and 665 nm. […] The potency and activity of a compound to inhibit cAMP production was then determined by fitting to a 4-parametric logistic equation from a plot of cAMP level versus compound concentrations. […]

Chain of human FPR1 (P21462 whole entry): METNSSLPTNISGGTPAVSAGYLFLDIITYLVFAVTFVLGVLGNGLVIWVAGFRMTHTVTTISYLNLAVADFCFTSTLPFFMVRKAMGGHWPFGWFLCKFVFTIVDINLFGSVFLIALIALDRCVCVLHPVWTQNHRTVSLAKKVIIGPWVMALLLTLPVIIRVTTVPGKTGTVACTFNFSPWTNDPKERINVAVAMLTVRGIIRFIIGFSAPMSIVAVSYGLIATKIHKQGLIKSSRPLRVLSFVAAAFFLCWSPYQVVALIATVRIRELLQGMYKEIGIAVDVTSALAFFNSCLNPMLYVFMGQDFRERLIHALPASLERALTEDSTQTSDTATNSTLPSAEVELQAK

EC50 (human FPR1): 52 nM
EC50 (human FPR2): 8.6 nM
Structure (SMILES): COc1c(-c2ccccc2CO)ccc(N2CC[C@@H](NC(=O)Nc3ccc(Cl)cc3F)C2=O)c1F [Example 35]
